Measurements reported in patent US20240368156A1, “2-AZABICYCLO[2.2.1]HEPTANE KRAS INHIBITORS” (INCYTE CORPORATION, priority 2023, published 2024).
pIC50: −log10 of the molar value.

Columns and labels:
KRAS G12D = KRAS G12D (Homo sapiens, UniProt P01116, G12D); experiment: GDP-GTP exchange assay (bodipy-GDP/GppNHp, SOS1), KRAS G12D; assay type: biochemical; details: 2.5 nM bodipy-loaded KRAS G12D, 4 h pre-incubation, 2 h reaction with GppNHp and SOS1; for certain compounds the most potent isomer is quoted; read-out: KRAS_G12D exchange assay IC50
KRAS G12D, sequence (P01116 1-188 isoform P01116-2 G12D): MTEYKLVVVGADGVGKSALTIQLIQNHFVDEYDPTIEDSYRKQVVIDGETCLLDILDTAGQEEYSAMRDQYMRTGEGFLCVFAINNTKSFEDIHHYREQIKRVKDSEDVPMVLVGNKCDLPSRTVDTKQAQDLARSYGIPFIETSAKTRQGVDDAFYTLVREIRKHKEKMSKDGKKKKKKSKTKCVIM
Procedure: (§1) The inhibitor potency of the exemplified compounds was determined in a fluorescence based guanine nucleotide exchange assay, which measures the exchange of bodipy-GDP (fluorescently labeled GDP) for GppNHp (Non-hydrolyzable GTP analog) to generate the active state of KRAS in the presence of SOS1 (guanine nucleotide exchange factor). Inhibitors were serially diluted in DMSO and a volume of 0.1 μL was transferred to the wells of a black low volume 384-well plate. 5 µL/well volume of bodipy-loaded KRAS G12D diluted to 2.5 nM in assay buffer (25 mM Hepes pH 7.5, 50 mM NaCl, 10 mM MgCl2 and 0.01% Brij-35) was added to the plate and pre-incubated with inhibitor for 4 h at r.t. Appropriate controls (enzyme with no inhibitor or with a G12D inhibitor) were included on the plate. The exchange was initiated by the addition of a 5 μL/well volume containing 1 mM GppNHp and 300 nM SOS1 in assay buffer. The 10 μL/well reaction concentration of the bodipy-loaded KRAS G12D, GppNHp, and SOS1 were 2.5 nM, 500 μM, and 150 nM, respectively. The reaction plates were incubated at r.t. for 2 h, a time estimated for complete GDP-GTP exchange in the absence of inhibitor. For the KRAS G12V mutant, similar guanine nucleotide exchange assays were used with 2.5 nM as final concentration for the bodipy loaded KRAS proteins and 3 h incubation after adding GppNHp-SOS1 mixture. A cyclic peptide described to selectively bind G12D mutant (Sakamoto et al., BBRC 484.3 (2017), 605-611) or internal compounds with confirmed binding were used as positive controls in the assay plates. Fluorescence intensities were measured on a PheraStar plate reader instrument (BMG Labtech) with excitation at 485 nm and emission at 520 nm.
(§2) Either GraphPad prism or Genedata Screener SmartFit was used to analyze the data. The IC50 values were derived by fitting the data to a four parameter logistic equation producing a sigmoidal dose-response curve with a variable Hill coefficient.
(§3) The symbol “†” indicates IC50≤100 nM, “††” indicates IC50>100 nM but ≤1 μM; and “†††” indicates IC50 is >1 μM but ≤5 μM, “††††” indicates IC50 is >5 µM but ≤10 μM. “NA” indicates IC50 not available.

KRAS G12V = KRAS G12V (Homo sapiens, UniProt P01116, G12V); experiment: GDP-GTP exchange assay (bodipy-GDP/GppNHp, SOS1), KRAS G12V; assay type: biochemical; details: 2.5 nM bodipy-loaded KRAS G12V, 3 h incubation after adding GppNHp-SOS1; for certain compounds the most potent isomer is quoted; read-out: KRAS_G12V exchange assay IC50
KRAS G12V, sequence (P01116 1-188 isoform P01116-2 G12V): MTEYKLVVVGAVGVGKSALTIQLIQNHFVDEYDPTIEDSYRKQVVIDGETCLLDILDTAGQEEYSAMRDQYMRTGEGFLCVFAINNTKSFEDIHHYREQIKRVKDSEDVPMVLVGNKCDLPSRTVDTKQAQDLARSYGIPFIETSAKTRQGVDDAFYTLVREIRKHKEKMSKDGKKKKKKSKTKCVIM
Procedure: as §1, §2, §3

| Structure (SMILES) | pIC50 (KRAS G12D) | pIC50 (KRAS G12V) |
| --- | --- | --- |
| COC(=O)N1[C@@H]2C[C@@H]([C@@H](OC(F)F)C2)[C@@H]1c1cc2c(C)nc3c(F)c(-c4cccc(Cl)c4Cl)c(CCC#N)cc3c2n1[C@H]1[C@H]2CN[C@@H]1C2 (atropisomer, axis not shown; (Ra)) [Example 39, Methyl (1R,3R,4R,5S)-3-((Ra)-1-((1R,4R,5S)-2-azabicyclo[2.1.1]hexan-5-yl)-8-(2-cyanoethyl)-7-(2,3-dichlorophenyl)-6-fluoro-4-methyl-1H-pyrrolo[3,2-c]quinolin-2-yl)-5-(difluoromethoxy)-2-azabicyclo[2.2.1]heptane-2-carboxylate] | ≥ 7.00 | ≥ 7.00 |
| Cc1nc2c(F)c(-c3cccc(Cl)c3Cl)c(CCC#N)cc2c2c1cc([C@H]1[C@H]3CC[C@H](C3)N1C(=O)C1CC1)n2C1C2CNC1C2 (stereo partly drawn) [Example 25, 3-(1-(2-azabicyclo[2.1.1]hexan-5-yl)-2-((1R,3R,4S)-2-(cyclopropanecarbonyl)-2-azabicyclo[2.2.1]heptan-3-yl)-7-(2,3-dichlorophenyl)-6-fluoro-4-methyl-1H-pyrrolo[3,2-c]quinolin-8-yl)propanenitrile] | 5.30 to 6.00 | 5.00 to 5.30 |
| C[C@@H](O)c1nc2c(F)c(-c3cccc(Cl)c3Cl)c(CCC#N)cc2c2c1cc([C@H]1[C@H]3C[C@H](C[C@H]3Cl)N1C(=O)C1(F)CC1)n2[C@H]1[C@H]2CN[C@@H]1C2 (atropisomer, axis not shown) [Example 33, 3-((R)-1-((1R,4R,5S)-2-azabicyclo[2.1.1]hexan-5-yl)-2-((1R,3R,4R,5R)-5-chloro-2-(1-fluorocyclopropane-1-carbonyl)-2-azabicyclo[2.2.1]heptan-3-yl)-7-(2,3-dichlorophenyl)-6-fluoro-4-((R)-1-hydroxyethyl)-1H-pyrrolo[3,2-c]quinolin-8-yl)propanenitrile] | ≥ 7.00 | ≥ 7.00 |
| CO[C@@H]1C[C@H]2C[C@@H]1[C@H](c1cc3c(C)nc4c(F)c(-c5cccc(Cl)c5Cl)c(CCC#N)cc4c3n1C1[C@H]3CN[C@@H]1C3)N2C(=O)C1CC1 (stereo partly drawn) [Example 22, 3-(1-((1R,4R)-2-azabicyclo[2.1.1]hexan-5-yl)-2-((1R,3R,4R,5R)-2-(cyclopropanecarbonyl)-5-methoxy-2-azabicyclo[2.2.1]heptan-3-yl)-7-(2,3-dichlorophenyl)-6-fluoro-4-methyl-1H-pyrrolo[3,2-c]quinolin-8-yl)propanenitrile] | 6.00 to 7.00 | 6.00 to 7.00 |
| C[C@@H](O)c1nc2c(F)c(-c3cccc(Cl)c3Cl)c(CCC#N)cc2c2c1cc([C@H]1[C@H]3C[C@H](C[C@@H]3F)N1C(=O)C1(F)CC1)n2[C@H]1[C@H]2CN[C@@H]1C2 (single isomer, unassigned) [Example 8] | ≥ 7.00 | ≥ 7.00 |
| Cc1nc2c(F)c(-c3cccc(Cl)c3Cl)c(CCC#N)cc2c2c1cc([C@H]1[C@H]3C[C@H](C[C@@H]3OC(F)F)N1C(=O)C1CC1)n2[C@H]1[C@H]2CN[C@@H]1C2 (atropisomer, axis not shown; (Ra)) [Example 7, 3-((Ra)-1-((1R,4R,5S)-2-Azabicyclo[2.1.1]hexan-5-yl)-2-((1R,3R,4R,5S)-2-(cyclopropanecarbonyl)-5-(difluoromethoxy)-2-azabicyclo[2.2.1]heptan-3-yl)-7-(2,3-dichlorophenyl)-6-fluoro-4-methyl-1H-pyrrolo[3,2-c]quinolin-8-yl)propanenitrile] | ≥ 7.00 | ≥ 7.00 |
| Cc1nc2c(F)c(-c3cccc(Cl)c3Cl)c(CCC#N)cc2c2c1cc([C@H]1[C@H]3C[C@H](C[C@@H]3C(F)F)N1C(=O)C1CC1)n2[C@H]1[C@H]2CN[C@@H]1C2 (atropisomer, axis not shown; (Ra)) [Example 9, 3-((Ra)-1-((1R,4R,5S)-2-Azabicyclo[2.1.1]hexan-5-yl)-2-((1R,3R,4S,5S)-2-(cyclopropanecarbonyl)-5-(difluoromethyl)-2-azabicyclo[2.2.1]heptan-3-yl)-7-(2,3-dichlorophenyl)-6-fluoro-4-methyl-1H-pyrrolo[3,2-c]quinolin-8-yl)propanenitrile] | ≥ 7.00 | ≥ 7.00 |
| CO[C@H]1C[C@H]2C[C@@H]1[C@H](c1cc3c(C)nc4c(F)c(-c5cccc(Cl)c5Cl)c(CCC#N)cc4c3n1[C@H]1[C@H]3CN[C@@H]1C3)N2C(=O)C1CC1 (atropisomer, axis not shown; (Ra)) [Example 1, 3-((Ra)-1-((1R,4R,5S)-2-Azabicyclo[2.1.1]hexan-5-yl)-2-((1R,3R,4R,5S)-2-(cyclopropanecarbonyl)-5-methoxy-2-azabicyclo[2.2.1]heptan-3-yl)-7-(2,3-dichlorophenyl)-6-fluoro-4-methyl-1H-pyrrolo[3,2-c]quinolin-8-yl)propanenitrile] | ≥ 7.00 | – |
| Cc1nc2c(F)c(-c3cccc(Cl)c3Cl)c(CCC#N)cc2c2c1cc([C@H]1[C@H]3C[C@H](C[C@@H]3OC(F)F)N1C(=O)C1(F)CC1)n2[C@H]1[C@H]2CN[C@@H]1C2 [Example 35, 3-(1-((1R,4R,5S)-2-Azabicyclo[2.1.1]hexan-5-yl)-7-(2,3-dichlorophenyl)-2-((1R,3R,4R,5S)-5-(difluoromethoxy)-2-(1-fluorocyclopropane-1-carbonyl)-2-azabicyclo[2.2.1]heptan-3-yl)-6-fluoro-4-methyl-1H-pyrrolo[3,2-c]quinolin-8-yl)propanenitrile] | ≥ 7.00 | – |

Results, then the compound that gave them:

| pIC50 (KRAS G12D) | pIC50 (KRAS G12V) | Structure (SMILES) |
| --- | --- | --- |
| ≥ 7.00 | ≥ 7.00 | Cc1nc2c(F)c(-c3cccc(Cl)c3Cl)c(CCC#N)cc2c2c1cc([C@H]1[C@H]3C[C@H]([C@@H]4C[C@@H]43)N1C(=O)C1CC1)n2C1C2CNC1C2 (stereo partly drawn) [Example 24, 3-(1-(2-azabicyclo[2.1.1]hexan-5-yl)-2-((1S,2S,4R,5R,7R)-6-(cyclopropanecarbonyl)-6-azatricyclo[3.2.1.02,4]octan-7-yl)-7-(2,3-dichlorophenyl)-6-fluoro-4-methyl-1H-pyrrolo[3,2-c]quinolin-8-yl)propanenitrile] |
| ≥ 7.00 | ≥ 7.00 | Cc1nc2c(F)c(-c3cccc(Cl)c3Cl)c(CCC#N)cc2c2c1cc([C@H]1[C@H]3C[C@H](C[C@@H]3F)N1C(=O)C1CC1)n2C1[C@H]2CN[C@@H]1C2 (stereo partly drawn) [Example 20, 3-(1-((1R,4R)-2-azabicyclo[2.1.1]hexan-5-yl)-2-((1R,3R,4R,5S)-2-(cyclopropanecarbonyl)-5-fluoro-2-azabicyclo[2.2.1]heptan-3-yl)-7-(2,3-dichlorophenyl)-6-fluoro-4-methyl-1H-pyrrolo[3,2-c]quinolin-8-yl)propanenitrile] |
| ≥ 7.00 | ≥ 7.00 | Cc1nc2c(F)c(-c3cccc(Cl)c3Cl)c(CCC#N)cc2c2c1cc([C@H]1[C@H]3C[C@H](C[C@H]3F)N1C(=O)C1CC1)n2C1[C@H]2CN[C@@H]1C2 (stereo partly drawn) [Example 17, 3-(1-((1R,4R)-2-azabicyclo[2.1.1]hexan-5-yl)-2-((1R,3R,4R,5R)-2-(cyclopropanecarbonyl)-5-fluoro-2-azabicyclo[2.2.1]heptan-3-yl)-7-(2,3-dichlorophenyl)-6-fluoro-4-methyl-1H-pyrrolo[3,2-c]quinolin-8-yl)propanenitrile] |
| ≥ 7.00 | ≥ 7.00 | Cc1nc2c(F)c(-c3cccc(Cl)c3Cl)c(CCC#N)cc2c2c1cc([C@H]1[C@H]3C[C@H](C[C@@H]3F)N1C(=O)C1CC1)n2[C@H]1[C@H]2CN[C@@H]1C2 (atropisomer, axis not shown; (Ra)) [Example 2, 3-((Ra)-1-((1R,4R,5S)-2-Azabicyclo[2.1.1]hexan-5-yl)-2-((1R,3R,4R,5S)-2-(cyclopropanecarbonyl)-5-fluoro-2-azabicyclo[2.2.1]heptan-3-yl)-7-(2,3-dichlorophenyl)-6-fluoro-4-methyl-1H-pyrrolo[3,2-c]quinolin-8-yl)propanenitrile] |
| 5.00 to 5.30 | 5.00 to 5.30 | Cc1nc2c(F)c(-c3cccc(Cl)c3Cl)c(CCC#N)cc2c2c1cc([C@H]1[C@@H]3C[C@@H]([C@@H]4C[C@@H]43)N1C(=O)C1CC1)n2C1C2CNC1C2 (stereo partly drawn) [Example 26, 3-(1-(2-azabicyclo[2.1.1]hexan-5-yl)-2-((1R,2S,4R,5S,7R)-6-(cyclopropanecarbonyl)-6-azatricyclo[3.2.1.02,4]octan-7-yl)-7-(2,3-dichlorophenyl)-6-fluoro-4-methyl-1H-pyrrolo[3,2-c]quinolin-8-yl)propanenitrile] |
